Reference: BindingDB's records for doi:10.3109/14756360903468155 (Banaras Hindu University, 2010)

The compounds below were run against Urease (Glycine max, UniProt Q949H4) (assay: Urease Inhibition Assay). Settings: pH 7; 37 °C.
Experimental: The inhibition studies of soybean urease were initiated with boric acid and boronic acids (butylboronic acid, 4-bromophenylboronic acid, and phenylboronic acid). Also, heavy metal ions (HgCl2, AgCl, and Cu(CH3COO)2) and sodium salts of mineral acids (NaF, NaCl, NaNO3, and Na2SO4) were investigated for their inhibitory effects. Stock solutions of inhibitors, except for 4-bromophenylboronicacid, were prepared in 0.05 M Tris-acetate buffer, pH 7.0, and were suitably diluted for experiments, whereas a stock solution of 4-bromophenylboronic acid was prepared in absolute ethanol and subsequently diluted in respective buffer. The activity assay was carried out at standard conditions as described earlier in the presence of varying concentrations of inhibitors. The yellow-orange colored solution was measured at 405 nm on a Unicam UV-2 spectrophotometer. The amount of NH3 liberated in the reaction mixture was estimated by calibrating Nessler's reagent with standard NH4Cl solution. One enzyme unit is defined as the amount of urease required to liberate 1 μmol of ammonia per minute under our test conditions (0.1 M urea, 0.05 M Trisacetatebuffer, pH 7.0, 37°C).

Urease, sequence (Q949H4 whole entry): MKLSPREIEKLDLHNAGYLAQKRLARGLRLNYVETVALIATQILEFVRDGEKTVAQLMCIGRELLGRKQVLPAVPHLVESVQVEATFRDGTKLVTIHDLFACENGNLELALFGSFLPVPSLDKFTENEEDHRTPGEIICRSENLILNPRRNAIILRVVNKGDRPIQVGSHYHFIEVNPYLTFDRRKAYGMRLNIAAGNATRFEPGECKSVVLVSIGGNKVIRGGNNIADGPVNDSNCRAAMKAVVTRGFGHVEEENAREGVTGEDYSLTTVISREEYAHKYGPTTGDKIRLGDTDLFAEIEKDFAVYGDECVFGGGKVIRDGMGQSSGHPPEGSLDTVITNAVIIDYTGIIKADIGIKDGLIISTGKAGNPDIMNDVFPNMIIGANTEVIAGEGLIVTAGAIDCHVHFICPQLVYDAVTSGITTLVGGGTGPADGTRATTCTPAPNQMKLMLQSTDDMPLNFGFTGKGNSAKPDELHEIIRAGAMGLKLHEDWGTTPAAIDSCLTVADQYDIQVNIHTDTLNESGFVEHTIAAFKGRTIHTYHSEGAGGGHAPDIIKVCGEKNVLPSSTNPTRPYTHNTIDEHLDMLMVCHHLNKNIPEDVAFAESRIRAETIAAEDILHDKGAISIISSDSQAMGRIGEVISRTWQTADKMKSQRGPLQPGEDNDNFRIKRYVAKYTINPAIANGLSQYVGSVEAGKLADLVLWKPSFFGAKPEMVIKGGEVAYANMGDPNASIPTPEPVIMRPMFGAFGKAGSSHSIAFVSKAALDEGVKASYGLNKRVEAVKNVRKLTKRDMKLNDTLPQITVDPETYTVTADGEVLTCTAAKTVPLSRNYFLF

Ki [µM]	Structure (SMILES)
220	OB(O)c1ccc(Br)cc1 [4-bromo phenyl boronic acid]
200	OB(O)O [Boric acid]
1500	CCCCB(O)O [Borinic acid derivative]
2000	OB(O)c1ccccc1 [Phenylboronic acid, 22]
